SMILES strings stand for the structures. Where only a bound is given, the exact number is not on record here.

In general, IC50 refers to the concentration that gives 50% inhibition.

The test deals with T1, hM5 (Homo sapiens, UniProt P08912).
T1 construct: expressed in transfected cells
T1 sequence (P08912 1-532): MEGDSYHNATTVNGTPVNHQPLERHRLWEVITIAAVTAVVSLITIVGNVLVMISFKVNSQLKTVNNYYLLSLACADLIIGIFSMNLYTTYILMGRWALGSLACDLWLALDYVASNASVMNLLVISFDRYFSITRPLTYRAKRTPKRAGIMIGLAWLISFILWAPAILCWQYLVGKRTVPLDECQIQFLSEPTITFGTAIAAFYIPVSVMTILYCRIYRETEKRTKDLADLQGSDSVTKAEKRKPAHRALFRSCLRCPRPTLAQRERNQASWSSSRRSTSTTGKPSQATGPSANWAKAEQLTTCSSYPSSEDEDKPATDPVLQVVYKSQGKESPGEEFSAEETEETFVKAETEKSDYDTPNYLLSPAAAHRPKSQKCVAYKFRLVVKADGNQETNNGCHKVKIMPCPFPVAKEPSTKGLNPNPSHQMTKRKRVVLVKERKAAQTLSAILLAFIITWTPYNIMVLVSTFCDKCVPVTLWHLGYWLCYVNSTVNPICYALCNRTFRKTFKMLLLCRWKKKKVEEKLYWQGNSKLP
The test can be described thus: Calcium mobilization concentration-response (IC50 vs EC80 acetylcholine), CHO hM5. In kind it is cell-based. Conditions: CELL LINE hM5; calcium mobilization, EC80 acetylcholine addition; read-out: IC50. In short, it runs like this:
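CHO cells stably expressing hM5, dye-loaded, in HBSS/20 mM HEPES/2.5 mM probenecid, pH 7.4. Compounds were pre-incubated 140 s before an EC80 acetylcholine challenge, with calcium flux read kinetically.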
(In general: A change in cytosolic calcium serves as a functional read-out for many receptors and channels.)
Consider `Cc1nc2[nH]cnc2cc1C1CCN(S(=O)(=O)c2cnn3c2CCC3)CC1` [Compound 289, 6-(1-((5,6-dihydro-4H-pyrrolo[1,2-b]pyrazol-3-yl)sulfonyl)piperidin-4-yl)-5-methyl-3H-imidazo[4,5-b]pyridine], for which the IC50 is over 10000 nM.
Next, `Cc1cc2ncnn2cc1C1CCN(S(=O)(=O)c2cccc3nn(C)cc23)CC1` [Compound 290, 7-methyl-6-(1-((2-methyl-2H-indazol-4-yl)sulfonyl)piperidin-4-yl)-[1,2,4]triazolo[1,5-a]pyridine]: 1200 nM; `Cc1c(S(=O)(=O)N2CCC(c3cn4ncnc4cc3Cl)CC2)cnn1C` [Compound 291, 7-chloro-6-(1-((1,5-dimethyl-1-pyrazol-4-yl)sulfonyl)piperidin-4-yl)-[1,2,4]triazolo[1,5-a]pyridine]: 36 nM; `O=S(=O)(c1cnn2c1CCC2)N1CCC(c2cn3ncnc3cc2Cl)CC1` [Compound 293, 7-chloro-6-(1-((5,6-dihydro-4H-pyrrolo[1,2-b]pyrazol-3-yl)sulfonyl)piperidin-4-yl)-[1,2,4]triazolo[1,5-a]pyridine]: 12 nM.
As for `Cc1ncc(S(=O)(=O)N2CCC(c3cn4ncnc4cc3Cl)CC2)n1C` [Compound 294, 7-chloro-6-(1-((1,2-dimethyl-1H-imidazol-5-yl)sulfonyl)piperidin-4-yl)-[1,2,4]triazolo[1,5-a]pyridine], the IC50 was 22 nM.
Next, `Cn1ncc(S(=O)(=O)N2CCC(c3cn4ncnc4cc3Cl)CC2)c1C(F)F` [Compound 295, 7-chloro-6-(1-((5-(difluoromethyl)-1-methyl-1H-pyrazol-4-yl)sulfonyl)piperidin-4-yl)-[1,2,4]triazolo[1,5-a]pyridine]: 19 nM; `CCc1cc2ncnn2cc1C1CCN(S(=O)(=O)c2cnn(C)c2C)CC1` [Compound 297, 6-(1-((1,5-dimethyl-1H-pyrazol-4-yl)sulfonyl)piperidin-4-yl)-7-ethyl-[1,2,4]triazolo[1,5-a]pyridine]: 73 nM; `CCc1cc2ncnn2cc1C1CCN(S(=O)(=O)c2cnn3c2CCC3)CC1` [Compound 299, 6-(1-((5,6-dihydro-4H-pyrrolo[1,2-b]pyrazol-3-yl)sulfonyl)piperidin-4-yl)-7-ethyl-[1,2,4]triazolo[1,5-a]pyridine]: 26 nM.
Next, `CCc1cc2ncnn2cc1C1CCN(S(=O)(=O)c2cnc(C)n2C)CC1` [Compound 300, 6-(1-((1,2-dimethyl-1H-imidazol-5-yl)sulfonyl)piperidin-4-yl)-7-ethyl-[1,2,4]triazolo[1,5-a]pyridine]: 227 nM.
Next, `CCc1cc2ncnn2cc1C1CCN(S(=O)(=O)c2cnn(C)c2C(F)F)CC1` [Compound 301, 6-(1-((5-(difluoromethyl)-1-methyl-1H-pyrazol-4-yl)sulfonyl)piperidin-4-yl)-7-ethyl-[1,2,4]triazolo[1,5-a]pyridine]: 85 nM; `CCc1cc2ncnn2cc1C1CCN(S(=O)(=O)c2cnn3c2CCCC3)CC1` [Compound 302, 7-ethyl-6-(1-((4,5,6,7-tetrahydropyrazolo[1,5-a]pyridin-3-yl)sulfonyl)piperidin-4-yl)-[1,2,4]triazolo[1,5-a]pyridine]: 54 nM.
With `Cc1c(C2CCN(S(=O)(=O)c3cnc(C)n3C)CC2)cn2ncnc2c1F` [Compound 304, 6-(1-((1,2-dimethyl-1H-imidazol-5-yl)sulfonyl)piperidin-4-yl)-8-fluoro-7-methyl-[1,2,4]triazolo[1,5-a]pyridine], the IC50 was 43 nM.
Consider `Cc1c(C2CCN(S(=O)(=O)c3cnn4c3CCCC4)CC2)cn2ncnc2c1F` [Compound 305, 8-fluoro-7-methyl-6-(1-((4,5,6,7-tetrahydropyrazolo[1,5-a]pyridin-3-yl)sulfonyl)piperidin-4-yl)-[1,2,4]triazolo[1,5-a]pyridine], for which the IC50 is 12 nM.
Next, `Cc1c(C2CCN(S(=O)(=O)c3cnn(C)c3C(F)F)CC2)cn2ncnc2c1F` [Compound 307, 6-(1-((5-(Difluoromethyl)-1-methyl-1H-pyrazol-4-yl)sulfonyl)piperidin-4-yl)-8-fluoro-7-methyl-[1,2,4]triazolo[1,5-a]pyridine]: 17 nM; `Cc1cc2ncnn2cc1C1(O)CCN(S(=O)(=O)c2cnn(C)c2C)CC1` [Compound 308, 1-((1,5-Dimethyl-1H-pyrazol-4-yl)sulfonyl)-4-(7-methyl-[1,2,4]triazolo[1,5-a]pyridin-6-yl)piperidin-4-ol]: over 10000 nM.
Next, `Cc1cc2ncnn2cc1C1(O)CCN(S(=O)(=O)c2cnc(C)n2C)CC1` [Compound 309, 1-((1,2-dimethyl-1H-imidazol-5-yl)sulfonyl)-4-(7-methyl-[1,2,4]triazolo[1,5-a]pyridin-6-yl)piperidin-4-ol]: over 10000 nM; `Cc1cc2ncnn2cc1C1(O)CCN(S(=O)(=O)c2ccc3c(c2)CCO3)CC1` [Compound 310, 1-((2,3-dihydrobenzofuran-5-yl)sulfonyl)-4-(7-methyl-[1,2,4]triazolo[1,5-a]pyridin-6-yl)piperidin-4-ol]: over 10000 nM; `Cc1cc(S(=O)(=O)N2CCC(c3nn4ccnc4cc3C)CC2)c(C)s1` [Compound 311, 6-(1-((2,5-dimethylthiophen-3-yl)sulfonyl)piperidin-4-yl)-7-methylimidazo[1,2-b]pyridazine]: 4900 nM.
As to `Cc1cc2nccn2nc1C1CCN(S(=O)(=O)c2cnn(C(F)F)c2C)CC1` [Compound 312, 6-(1-((1-(difluoromethyl)-5-methyl-1H-pyrazol-4-yl)sulfonyl)piperidin-4-yl)-7-methylimidazo[1,2-b]pyridazine], the IC50 was determined as 877 nM.
Next, `Cc1cc2nc(C(F)F)nn2cc1C1=CCN(S(=O)(=O)c2cnn3c2CCCC3)CC1` [Compound 316, 2-(difluoromethyl)-7-methyl-6-(1-((4,5,6,7-tetrahydropyrazolo[1,5-a]pyridin-3-yl)sulfonyl)-1,2,3,6-tetrahydropyridin-4-yl)-[1,2,4]triazolo[1,5-a]pyridine]: 1200 nM.
Regarding `Cc1ncc(S(=O)(=O)N2CC=C(c3cn4nc(C(F)F)nc4cc3C)CC2)s1` [Compound 317, 5-((4-(2-(Difluoromethyl)-7-methyl-[1,2,4]triazolo[1,5-a]pyridin-6-yl)-3,6-dihydropyridin-1(2H)-yl)sulfonyl)-2methylthiazole], the IC50 was found to be 6900 nM.
Next, `Cc1nn(C)c(Cl)c1S(=O)(=O)N1CCC(c2cn3ncnc3c(F)c2C)CC1` [Compound 318, 6-(1-((5-chloro-1,3-dimethyl-1H-pyrazol-4-yl)sulfonyl)piperidin-4-yl)-8-fluoro-7-methyl-[1,2,4]triazolo[1,5-a]pyridine]: 15 nM; `[2H]C([2H])([2H])n1nc(Cl)c(S(=O)(=O)N2CCC(c3cn4ncnc4c(F)c3C)CC2)c1C` [Compound 319, 6-(1-((3-chloro-5-methyl-1-(methyl-d3)-1H-pyrazol-4-yl)sulfonyl)piperidin-4-yl)-8-fluoro-7-methyl-[1,2,4]triazolo[1,5-a]pyridine]: 12 nM.
Next, `Cc1cc2ncnn2cc1C1CCN(S(=O)(=O)c2cn(C)c(C)n2)CC1` [Compound 320, 6-(1-((1,2-dimethyl-1H-imidazol-4-yl)sulfonyl)piperidin-4-yl)-7-methyl-[1,2,4]triazolo[1,5-a]pyridine]: 7200 nM.
Consider `Cc1cc2ncnn2cc1C1CCN(S(=O)(=O)c2ncn(C)c2Cl)CC1` [Compound 321, 6-(1-((5-chloro-1-methyl-1H-imidazol-4-yl)sulfonyl)piperidin-4-yl)-7-methyl-[1,2,4]triazolo[1,5-a]pyridine], for which the IC50 is 1100 nM.
In the case of `Cc1cc2ncnn2cc1C1CCN(S(=O)(=O)c2cnc3n2CCCC3)CC1` [Compound 322, 7-methyl-6-(1-((5,6,7,8-tetrahydroimidazo[1,2-a]pyridin-3-yl)sulfonyl)piperidin-4-yl)-[1,2,4]triazolo[1,5-a]pyridine], the IC50 is 9.8 nM.
With `Cc1cc2ncnn2cc1C1CCN(S(=O)(=O)c2cnc3ccccn23)CC1` [Compound 323, 6-(1-(imidazo[1,2-a]pyridin-3-ylsulfonyl)piperidin-4-yl)-7-methyl-[1,2,4]triazolo[1,5-a]pyridine], the IC50 stood at 16 nM.
Next, `Cc1cc2ncnn2cc1C1CCN(S(=O)(=O)c2c(Cl)nc3sccn23)CC1` [Compound 324, 6-chloro-5-((4-(7-methyl-[1,2,4]triazolo[1,5-a]pyridin-6-yl)piperidin-1-yl)sulfonyl)imidazo[2,1-b]thiazole]: 13 nM; `Cc1cc2ncnn2cc1C1CCN(S(=O)(=O)c2c(Cl)nn(C)c2C)CC1` [Compound 325, 6-(1-((3-chloro-1,5-dimethyl-1H-pyrazol-4-yl)sulfonyl)piperidin-4-yl)-7-methyl-[1,2,4]triazolo[1,5-a]pyridine]: 25 nM; `O=S(=O)(c1cnc2n1CCCC2)N1CCC(c2cn3ncnc3cc2F)CC1` [Compound 326, 7-fluoro-6-(1-((5,6,7,8-tetrahydroimidazo[1,2-a]pyridin-3-yl)sulfonyl)piperidin-4-yl)-[1,2,4]triazolo[1,5-a]pyridine]: 99 nM.

The record behind these values is patent US20230183237A1, “COMPETITIVE AND NONCOMPETITIVE INHIBITORS OF THE MUSCARINIC ACETYLCHOLINE RECEPTOR M5” (Vanderbilt University, priority 2020, published 2023).
